According to patent US8133998B2, “Bicyclic pyrimidine derivatives as calcium channel blockers” (Zalicus Pharmaceuticals, Ltd., priority 2007, dated 2012):

Key:
[1] = target: T1, human α1I T-type channels (Homo sapiens, UniProt Q9P0X4); test: T-type calcium channel block, whole cell patch clamp in HEK cells; assay type: cell-based; conditions: HEK cells stably expressing human α1I; measured at 1 μM drug; mainly non-inactivated protocol
T1 construct: expressed in transfected cells; host or cells: HEK 293
T1 sequence (Q9P0X4 whole entry): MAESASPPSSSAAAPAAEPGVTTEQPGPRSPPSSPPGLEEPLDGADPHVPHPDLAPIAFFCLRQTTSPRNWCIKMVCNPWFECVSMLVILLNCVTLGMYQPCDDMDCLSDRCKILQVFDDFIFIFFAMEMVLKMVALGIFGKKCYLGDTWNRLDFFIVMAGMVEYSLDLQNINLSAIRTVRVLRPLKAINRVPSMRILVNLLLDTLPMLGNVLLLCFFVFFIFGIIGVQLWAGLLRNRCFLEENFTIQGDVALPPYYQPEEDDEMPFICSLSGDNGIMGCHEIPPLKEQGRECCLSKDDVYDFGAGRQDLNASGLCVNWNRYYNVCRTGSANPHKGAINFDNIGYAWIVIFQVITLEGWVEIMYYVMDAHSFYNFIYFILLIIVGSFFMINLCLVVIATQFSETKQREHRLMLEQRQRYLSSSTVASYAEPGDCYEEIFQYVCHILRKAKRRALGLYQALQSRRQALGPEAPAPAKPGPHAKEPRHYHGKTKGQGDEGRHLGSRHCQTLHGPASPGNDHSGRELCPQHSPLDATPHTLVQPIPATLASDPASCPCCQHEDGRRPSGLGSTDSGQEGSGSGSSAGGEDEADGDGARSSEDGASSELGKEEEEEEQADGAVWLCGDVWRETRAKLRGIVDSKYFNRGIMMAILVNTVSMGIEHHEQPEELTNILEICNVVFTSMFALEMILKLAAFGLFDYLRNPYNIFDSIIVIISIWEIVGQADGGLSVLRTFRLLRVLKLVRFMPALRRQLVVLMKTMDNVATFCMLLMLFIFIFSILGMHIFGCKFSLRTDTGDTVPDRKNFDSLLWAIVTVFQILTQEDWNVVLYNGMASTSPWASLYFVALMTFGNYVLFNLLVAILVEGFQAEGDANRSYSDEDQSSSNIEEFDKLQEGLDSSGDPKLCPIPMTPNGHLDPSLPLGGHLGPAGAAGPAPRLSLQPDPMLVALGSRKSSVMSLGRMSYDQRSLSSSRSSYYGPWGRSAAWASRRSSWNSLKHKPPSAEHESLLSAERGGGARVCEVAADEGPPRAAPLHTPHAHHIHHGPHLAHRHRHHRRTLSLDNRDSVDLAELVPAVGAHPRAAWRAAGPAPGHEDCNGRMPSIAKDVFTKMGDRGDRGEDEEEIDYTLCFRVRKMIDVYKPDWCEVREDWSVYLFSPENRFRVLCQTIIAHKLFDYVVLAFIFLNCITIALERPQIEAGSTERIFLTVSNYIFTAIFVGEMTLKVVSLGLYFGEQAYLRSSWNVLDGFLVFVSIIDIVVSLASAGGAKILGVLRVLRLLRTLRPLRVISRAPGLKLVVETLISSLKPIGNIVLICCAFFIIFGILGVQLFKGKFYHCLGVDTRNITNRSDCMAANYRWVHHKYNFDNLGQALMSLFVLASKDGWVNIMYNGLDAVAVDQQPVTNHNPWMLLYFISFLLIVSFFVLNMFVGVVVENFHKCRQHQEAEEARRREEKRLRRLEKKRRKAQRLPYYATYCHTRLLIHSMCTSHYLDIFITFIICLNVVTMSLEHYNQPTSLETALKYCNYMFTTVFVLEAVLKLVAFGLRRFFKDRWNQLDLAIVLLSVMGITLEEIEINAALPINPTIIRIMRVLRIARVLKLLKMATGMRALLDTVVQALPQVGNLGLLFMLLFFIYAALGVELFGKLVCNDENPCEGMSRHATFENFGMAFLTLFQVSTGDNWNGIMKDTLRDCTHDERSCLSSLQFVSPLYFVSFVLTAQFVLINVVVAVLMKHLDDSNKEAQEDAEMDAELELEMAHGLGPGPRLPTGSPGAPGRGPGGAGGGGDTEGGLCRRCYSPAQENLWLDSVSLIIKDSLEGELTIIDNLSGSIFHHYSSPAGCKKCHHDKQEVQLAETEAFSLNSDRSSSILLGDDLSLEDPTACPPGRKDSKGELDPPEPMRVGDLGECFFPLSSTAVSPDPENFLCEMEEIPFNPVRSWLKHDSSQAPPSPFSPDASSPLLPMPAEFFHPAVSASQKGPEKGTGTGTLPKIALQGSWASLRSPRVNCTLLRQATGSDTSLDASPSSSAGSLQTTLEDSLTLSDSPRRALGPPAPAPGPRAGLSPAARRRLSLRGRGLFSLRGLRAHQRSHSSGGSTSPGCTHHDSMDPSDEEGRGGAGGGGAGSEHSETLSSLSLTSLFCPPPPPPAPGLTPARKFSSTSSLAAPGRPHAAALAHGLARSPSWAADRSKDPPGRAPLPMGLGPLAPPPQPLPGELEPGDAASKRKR
Procedure: (§1) T-type calcium channel blocking activity was assayed in human embryonic kidney cells, HEK 293, stably transfected with the T-type calcium channel subunits. Briefly, cells were cultured in Dulbecco's modified eagle medium (DMEM) supplemented with 10% fetal bovine serum, 200 U/ml penicillin and 0.2 mg/ml streptomycin at 37° C. with 5% CO2. At 85% confluency cells were split with 0.25% trypsin/1 mM EDTA and plated at 10% confluency on glass coverslips. At 12 hours the medium was replaced and the cells stably transfected using a standard calcium phosphate protocol and the appropriate calcium channel cDNA's. Fresh DMEM was supplied and the cells transferred to 28° C./5% CO2. Cells were incubated for 1 to 2 days prior to whole cell recording.
(§2) Standard patch-clamp techniques were employed to identify blockers of T-type currents. Briefly, previously described HEK cell lines stably expressing human α1G, α1H and α1I T-type channels were used for all the recordings (passage #: 4-20, 37° C., 5% CO2). Whole cell patch clamp experiments were performed using an Axopatch 200B amplifier (Axon Instruments, Burlingame, Calif.) linked to a personal computer equipped with pCLAMP software. Data were analyzed using Clampfit (Axon Instruments) and SigmaPlot 4.0 (Jandel Scientific). To obtain T-type currents, plastic dishes containing semi-confluent cells were positioned on the stage of a ZEISS AXIOVERT S100 microscope after replacing the culture medium with external solution (see below). Whole-cell patches were obtained using pipettes (borosilicate glass with filament, O.D.: 1.5 mm, I.D.: 0.86 mm, 10 cm length), fabricated on a SUTTER P-97 puller with resistance values of ˜5 MΩ (see below for internal solution).
(§3) In the non-inactivating protocol, the holding potential is set at −110 mV and with a pre-pulse at −100 mV for 1 second prior to the test pulse at −40 mV for 50 ms. In the inactivation protocol, the pre-pulse is at approximately −85 mV for 1 second, which inactivates about 15% of the T-type channels.
(§4) Test compounds were dissolved in external solution, 0.1-0.01% DMSO. After ˜10 min rest, they were applied by gravity close to the cell using a WPI microfil tubing. The “non-inactivated” pre-pulse was used to examine the resting block of a compound. The “inactivated” protocol was employed to study voltage-dependent block. However, the initial data shown below were mainly obtained using the non-inactivated protocol only. Kd values are shown for various compounds of the invention in Table 4 measured at 1 μM for the drug of interest except for compound 18 which was measured at 200 nM.

[2] = target: T2, human α1G T-type channels (Homo sapiens, UniProt O43497); test: as above; assay type: cell-based; conditions: HEK cells stably expressing human α1G; measured at 1 μM drug; mainly non-inactivated protocol
T2 construct: expressed in transfected cells; host or cells: HEK 293
T2 sequence (O43497 whole entry): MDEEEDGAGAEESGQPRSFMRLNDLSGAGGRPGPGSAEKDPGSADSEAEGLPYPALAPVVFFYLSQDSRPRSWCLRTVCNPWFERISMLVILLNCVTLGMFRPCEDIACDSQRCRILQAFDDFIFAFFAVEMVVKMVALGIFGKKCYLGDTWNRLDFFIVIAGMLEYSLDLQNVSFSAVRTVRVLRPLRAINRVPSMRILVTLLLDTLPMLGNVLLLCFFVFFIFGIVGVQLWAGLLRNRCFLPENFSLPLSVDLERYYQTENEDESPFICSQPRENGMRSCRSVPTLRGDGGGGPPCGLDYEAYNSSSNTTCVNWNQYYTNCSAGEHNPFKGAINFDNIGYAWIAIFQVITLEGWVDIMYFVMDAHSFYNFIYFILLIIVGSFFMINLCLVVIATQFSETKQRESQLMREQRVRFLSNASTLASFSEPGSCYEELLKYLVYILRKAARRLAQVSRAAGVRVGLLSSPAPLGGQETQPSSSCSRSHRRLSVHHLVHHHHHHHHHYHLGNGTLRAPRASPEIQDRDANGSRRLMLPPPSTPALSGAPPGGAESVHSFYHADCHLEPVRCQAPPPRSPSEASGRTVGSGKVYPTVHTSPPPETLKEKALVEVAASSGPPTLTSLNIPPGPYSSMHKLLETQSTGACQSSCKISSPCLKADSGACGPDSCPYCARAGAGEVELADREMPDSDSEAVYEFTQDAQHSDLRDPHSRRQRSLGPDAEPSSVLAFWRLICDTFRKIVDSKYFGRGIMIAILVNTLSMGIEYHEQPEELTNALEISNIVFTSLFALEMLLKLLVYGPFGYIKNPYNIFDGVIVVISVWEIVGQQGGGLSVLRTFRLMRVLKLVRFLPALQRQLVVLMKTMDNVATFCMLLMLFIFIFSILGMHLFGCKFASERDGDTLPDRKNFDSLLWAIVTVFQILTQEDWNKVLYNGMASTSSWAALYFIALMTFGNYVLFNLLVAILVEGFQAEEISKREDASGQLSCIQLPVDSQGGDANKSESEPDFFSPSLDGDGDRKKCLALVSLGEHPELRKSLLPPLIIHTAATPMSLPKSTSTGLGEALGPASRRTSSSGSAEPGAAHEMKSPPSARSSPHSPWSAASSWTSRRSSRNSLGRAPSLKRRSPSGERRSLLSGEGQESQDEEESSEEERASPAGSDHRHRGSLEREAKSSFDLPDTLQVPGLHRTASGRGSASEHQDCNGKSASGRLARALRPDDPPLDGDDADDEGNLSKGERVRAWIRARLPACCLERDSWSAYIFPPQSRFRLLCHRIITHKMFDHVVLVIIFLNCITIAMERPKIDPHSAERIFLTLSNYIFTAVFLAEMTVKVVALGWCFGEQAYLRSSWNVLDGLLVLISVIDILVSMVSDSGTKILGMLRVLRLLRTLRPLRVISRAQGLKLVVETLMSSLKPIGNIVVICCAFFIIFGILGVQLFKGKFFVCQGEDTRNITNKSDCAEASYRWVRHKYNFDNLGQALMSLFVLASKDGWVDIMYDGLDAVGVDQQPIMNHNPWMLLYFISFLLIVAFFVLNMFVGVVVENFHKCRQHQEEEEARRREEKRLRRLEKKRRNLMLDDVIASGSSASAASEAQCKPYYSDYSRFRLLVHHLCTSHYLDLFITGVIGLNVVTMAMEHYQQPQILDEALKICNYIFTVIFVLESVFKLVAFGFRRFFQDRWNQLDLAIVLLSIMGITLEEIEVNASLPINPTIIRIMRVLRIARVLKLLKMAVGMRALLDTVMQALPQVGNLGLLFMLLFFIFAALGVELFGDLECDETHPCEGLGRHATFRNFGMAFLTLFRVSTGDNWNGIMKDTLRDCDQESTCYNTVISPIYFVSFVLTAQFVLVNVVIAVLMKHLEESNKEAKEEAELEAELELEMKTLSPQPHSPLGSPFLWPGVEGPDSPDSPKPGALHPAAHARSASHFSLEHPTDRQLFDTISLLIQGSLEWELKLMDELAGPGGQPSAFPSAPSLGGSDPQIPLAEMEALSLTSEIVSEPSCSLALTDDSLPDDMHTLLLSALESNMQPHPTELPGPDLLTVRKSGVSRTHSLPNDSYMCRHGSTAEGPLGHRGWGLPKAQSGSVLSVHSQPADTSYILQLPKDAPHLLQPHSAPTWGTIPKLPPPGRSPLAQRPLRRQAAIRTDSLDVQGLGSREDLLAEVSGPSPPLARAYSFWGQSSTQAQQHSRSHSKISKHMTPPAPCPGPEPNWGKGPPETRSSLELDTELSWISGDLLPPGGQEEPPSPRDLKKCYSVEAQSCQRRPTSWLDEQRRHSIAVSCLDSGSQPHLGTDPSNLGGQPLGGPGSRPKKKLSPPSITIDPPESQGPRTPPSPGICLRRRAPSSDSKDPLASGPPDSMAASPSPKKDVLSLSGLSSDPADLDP
Procedure: as §1, §2, §3, §4

[3] = target: T3, human α1H T-type channels (Homo sapiens, UniProt O95180); test: as above; assay type: cell-based; conditions: HEK cells stably expressing human α1H; measured at 1 μM drug; mainly non-inactivated protocol
T3 construct: expressed in transfected cells; host or cells: HEK 293
Procedure: as §1, §2, §3, §4

[4] = test system: spinal nerve ligation model of neuropathic pain; conditions: rats; cited from earlier work
[5] = test system: T-type over L-type channels; conditions: cited from earlier work

SMILES | Kd [1] | Kd [2] | Kd [3] | anti-hyperalgesic activity in the spinal nerve ligation model of neuropathic pain [4] | selective for T-type over L-type channels [5]
Cc1c(C(=O)N2CCN(c3cccc(F)c3)CC2)sc2ncn(CC(=O)NC3CCCCC3)c(=O)c12 [Compound 21, N-cyclohexyl-2-(6-(4-(3-fluorophenyl)piperazine-1-carbonyl)-5-methyl-4-oxothieno[2,3-d]pyrimidin-3(4H)-yl)acetamide] | 5200 nM | 610 nM | 190 nM | – | –
CNC(=O)c1sc2ncn(CC(=O)Nc3cc(C(F)(F)F)cc(C(F)(F)F)c3)c(=O)c2c1C [Compound 66, 3-(2-(3,5-bis(trifluoromethyl)phenylamino)-2-oxoethyl)-N,5-dimethyl-4-oxo-3,4-dihydrothieno[2,3-d]pyrimidine-6-carboxamide] | 1040 nM | 350 nM | 7590 nM | – | –
Cc1c(C(=O)N2CCN(c3cc(C(F)(F)F)cc(C(F)(F)F)c3)CC2)sc2ncn(CC(=O)Nc3ccccc3)c(=O)c12 [Compound 53, 2-(6-(4-(3,5-bis(trifluoromethyl)phenyl)piperazine-1-carbonyl)-5-methyl-4-oxothieno[2,3-d]pyrimidin-3(4H)-yl)-N-phenylacetamide] | 580 nM | 190 nM | 1040 nM | – | –
Cc1c(C(=O)N2CCN(c3cccc(Cl)c3)CC2)sc2ncn(CC(=O)NC3CCCCC3)c(=O)c12 [Compound 24, 2-(6-(4-(3-chlorophenyl)piperazine-1-carbonyl)-5-methyl-4-oxothieno[2,3-d]pyrimidin-3(4H)-yl)-N-cyclohexylacetamide] | 1520 nM | 300 nM | 90 nM | – | –
Cc1c(C(=O)N2CCN(c3ccccc3F)CC2)sc2ncn(CC(=O)Nc3cccc(C(F)(F)F)c3)c(=O)c12 [Compound 62, 2-(6-(4-(2-fluorophenyl)piperazine-1-carbonyl)-5-methyl-4-oxothieno[2,3-d]pyrimidin-3(4H)-yl)-N-(3-(trifluoromethyl)phenyl)acetamide] | 340 nM | 290 nM | 800 nM | – | –
CCN(CC)C(=O)Cn1cnc2sc(C(=O)N3CCN(c4ccc(Cl)c(Cl)c4)CC3)c(C)c2c1=O [Compound 6, 2-(6-(4-(3,4-dichlorophenyl)piperazine-1-carbonyl)-5-methyl-4-oxothieno[2,3-d]pyrimidin-3(4H)-yl)-N,N-diethylacetamide] | 9670 nM | 950 nM | 340 nM | – | –
Cc1c(C(=O)N2CCN(c3ccccc3)CC2)sc2ncn(CC(=O)Nc3cc(F)cc(F)c3)c(=O)c12 [Compound 55, 2-(6-(4-phenylpiperazine-1-carbonyl)-5-methyl-4-oxothieno[2,3-d]pyrimidin-3(4H)-yl)-N-(3,5-difluorophenyl)acetamide] | > 950 nM | 240 nM | 380 nM | – | –
Cc1c(C(=O)N2CCN(c3ccccc3)CC2)sc2ncn(CC(=O)NC3CCCCC3)c(=O)c12 [Compound 19, N-cyclohexyl-2-(5-methyl-4-oxo-6-(4-phenylpiperazine-1-carbonyl)thieno[2,3-d]pyrimidin-3(4H)-yl)acetamide] | 2380 nM | 3600 nM | 360 nM | – | –
Cc1c(C(=O)N2CCN(c3ccccc3F)CC2)sc2ncn(CC(=O)Nc3cc(C(F)(F)F)cc(C(F)(F)F)c3)c(=O)c12 [Compound 64, N-(3,5-bis(trifluoromethyl)phenyl)-2-(6-(4-(2-fluorophenyl)piperazine-1-carbonyl)-5-methyl-4-oxothieno[2,3-d]pyrimidin-3(4H)-yl)acetamide] | 80 nM | 200 nM | 700 nM | – | –
COCC(=O)O[C@]1(CCN(C)CCCc2nc3ccccc3[nH]2)CCc2cc(F)ccc2[C@@H]1C(C)C [Mibefradil] | – | – | – | anti-hyperalgesic activity | 10-30 fold
Cc1c(C(=O)N2CCN(c3cccc(Cl)c3)CC2)sc2ncn(CC(=O)NC3CCCC3)c(=O)c12 [Compound 37, 2-(6-(4-(3-chlorophenyl)piperazine-1-carbonyl)-5-methyl-4-oxothieno[2,3-d]pyrimidin-3(4H)-yl)-N-cyclopentylacetamide] | 3290 nM | 300 nM | 170 nM | – | –
Cc1c(C(=O)N2CCN(c3ccc(Cl)c(C(F)(F)F)c3)CC2)sc2ncn(CC(=O)NC3CCCC3)c(=O)c12 [Compound 38, 2-(6-(4-(4-chloro-3-(trifluoromethyl)phenyl)piperazine-1-carbonyl)-5-methyl-4-oxothieno[2,3-d]pyrimidin-3(4H)-yl)-N-cyclopentylacetamide] | 2140 nM | 100 nM | 100 nM | – | –
CCC1(C)CC(=O)NC1=O (stereo not drawn) [ethosuximide] | – | – | – | anti-hyperalgesic activity | –
Cc1c(C(=O)N2CCN(c3ccccc3)CC2)sc2ncn(C(C)C(=O)NC3CCCCC3)c(=O)c12 (stereo not drawn) [Compound 33, N-cyclohexyl-2-(5-methyl-4-oxo-6-(4-phenylpiperazine-1-carbonyl)thieno[2,3-d]pyrimidin-3(4H)-yl)propanamide] | 5130 nM | 16500 nM | 350 nM | – | –
Cc1c(C(=O)N2CCN(c3ccc(Cl)cc3)CC2)sc2ncn(CC(=O)NC3CCCC3)c(=O)c12 [Compound 42, 2-(6-(4-(4-chlorophenyl)piperazine-1-carbonyl)-5-methyl-4-oxothieno[2,3-d]pyrimidin-3(4H)-yl)-N-cyclopentylacetamide] | 3840 nM | 570 nM | 280 nM | – | –
Cc1c(C(=O)N2CCN(c3ccc(Cl)cc3)CC2)sc2ncn(CC(=O)NC3CCCCC3)c(=O)c12 [Compound 20, 2-(6-(4-(4-chlorophenyl)piperazine-1-carbonyl)-5-methyl-4-oxothieno[2,3-d]pyrimidin-3(4H)-yl)-N-cyclohexylacetamide] | 2100 nM | 330 nM | 180 nM | – | –
Cc1c(C(=O)N2CCN(c3cccc(Cl)c3)CC2)sc2ncn(CC(=O)N3CCCC3)c(=O)c12 [Compound 73, 6-(4-(3-chlorophenyl)piperazine-1-carbonyl)-5-methyl-3-(2-oxo-2-(pyrrolidin-1-yl)ethyl)thieno[2,3-d]pyrimidin-4(3H)-one] | 8800 nM | 1460 nM | 220 nM | – | –
Cc1c(C(=O)N2CCCCC2)sc2ncn(CC(=O)Nc3cc(C(F)(F)F)cc(C(F)(F)F)c3)c(=O)c12 [Compound 69, N-(3,5-bis(trifluoromethyl)phenyl)-2-(5-methyl-4-oxo-6-(piperidine-1-carbonyl)thieno[2,3-d]pyrimidin-3(4H)-yl)acetamide] | 710 nM | 230 nM | 2730 nM | – | –
Cc1c(C(=O)N2CCN(c3ccccc3F)CC2)sc2ncn(CC(=O)NC3CCCCC3)c(=O)c12 [Compound 23, N-cyclohexyl-2-(6-(4-(2-fluorophenyl)piperazine-1-carbonyl)-5-methyl-4-oxothieno[2,3-d]pyrimidin-3(4H)-yl)acetamide] | 3270 nM | 1260 nM | 280 nM | – | –
Cc1c(C(=O)N2CCN(c3ccc(Cl)c(Cl)c3)CC2)sc2ncn(CC(=O)N3CCCC3)c(=O)c12 [Compound 135, 6-(4-(3,4-dichlorophenyl)piperazine-1-carbonyl)-5-methyl-3-(2-oxo-2-(pyrrolidin-1-yl)ethyl)thieno[2,3-d]pyri-midin-4(3H)-one] | 1380 nM | 9900 nM | 330 nM | – | –
